Assay results taken from the NIST ThermoML archive (doi:10.1016/j.jct.2006.01.015).
± gives the expanded uncertainty stated by the source.

How the values were obtained:
[1] = xn = mol fraction of the nth substance listed; details: 101 kPa, Liquid
[2] = 101 kPa, Liquid

CN(C)C=O [dimethylformamide] + CC#N
[1], x2 = 0
Details	mass density [kg/m3]
293.15 K	949.1 ± 0.9
298.15 K	944.6 ± 0.9
303.15 K	940.1 ± 1
308.15 K	935.7 ± 1
313.15 K	931.2 ± 1
318.15 K	926.7 ± 1.1

CC#N [acetonitrile] + CNC(C)=O
[1], x1 = 1
Details	mass density [kg/m3]
293.15 K	782.1 ± 0.7
298.15 K	776.8 ± 0.7
303.15 K	771.5 ± 0.8
308.15 K	766.3 ± 0.8
313.15 K	761 ± 0.8
318.15 K	755.7 ± 0.9

NC=O [formamide]
[2]
Details	mass density [kg/m3]
293.15 K	1133 ± 1.2
298.15 K	1129 ± 1.2
303.15 K	1125 ± 1.2
308.15 K	1121 ± 1.3
313.15 K	1117 ± 1.3
318.15 K	1113 ± 1.4

CC#N [acetonitrile] + CC(=O)N(C)C
[1], x1 = 1
Details	mass density [kg/m3]
293.15 K	782.1 ± 0.7
298.15 K	776.8 ± 0.7
303.15 K	771.5 ± 0.8
308.15 K	766.3 ± 0.8
313.15 K	761 ± 0.8
318.15 K	755.7 ± 0.9

CC#N [acetonitrile]
[2]
Details	mass density [kg/m3]
293.15 K	782.1 ± 0.7
298.15 K	776.8 ± 0.7
303.15 K	771.5 ± 0.8
308.15 K	766.3 ± 0.8
313.15 K	761 ± 0.8
318.15 K	755.7 ± 0.9

CNC(C)=O [N-methylacetamide]
[2]
Details	mass density [kg/m3]
293.15 K	958.4 ± 0.9
298.15 K	954.2 ± 1
303.15 K	950.1 ± 1
308.15 K	945.9 ± 1
313.15 K	941.7 ± 1.1
318.15 K	937.6 ± 1.1

CC(=O)N(C)C [N,N-dimethylethanamide]
[2]
Details	mass density [kg/m3]
293.15 K	941 ± 0.9
298.15 K	936.5 ± 0.9
303.15 K	932 ± 1
308.15 K	927.6 ± 1
313.15 K	923.1 ± 1
318.15 K	918.6 ± 1.1

CN(C)C=O [dimethylformamide]
[2]
Details	mass density [kg/m3]
293.15 K	949.1 ± 0.9
298.15 K	944.6 ± 0.9
303.15 K	940.1 ± 1
308.15 K	935.7 ± 1
313.15 K	931.2 ± 1
318.15 K	926.7 ± 1.1

CC#N [acetonitrile] + NC=O
[1], x1 = 1
Details	mass density [kg/m3]
293.15 K	782.1 ± 0.7
298.15 K	776.8 ± 0.7
303.15 K	771.5 ± 0.8
308.15 K	766.3 ± 0.8
313.15 K	761 ± 0.8
318.15 K	755.7 ± 0.9
